Reference: ChEMBL document CHEMBL1154545, “Optimization of a series of 4,6-bis-anilino-1H-pyrrolo[2,3-d]pyrimidine inhibitors of IGF-1R: elimination of an acid-mediated decomposition pathway” (Bioorg Med Chem Lett, 2009)

Experiments:
[1] = Chemical stability assessed as half life in 0.1 N HCl by LC-MS; type: physicochemical
[2] = biological target: T1, Insulin-like growth factor 1 receptor (Homo sapiens, UniProt P08069)
[3] = biological target: T1, Insulin-like growth factor 1 receptor; remark: listed apart in the source
Description: Inhibition of IGF1R phosphorylation by cellular assay

[4] = Clearance in rat at 2.2 mg/kg, iv or 9.8 mg/kg, po; type: ADME, organism-based; conditions: in vivo
Rattus norvegicus [5] = assay: Dose normalized AUC in rat at 9.8 mg/kg, po; type: ADME, organism-based; parameters: dose 9.8 mg/kg, route oral; conditions: in vivo
[6] = Bioavailability in rat at 9.8 mg/kg, po; type: ADME, organism-based; conditions: in vivo
[7] = Clearance in rat at 2.1 mg/kg, iv or 9.2 mg/kg, po; type: ADME, organism-based; conditions: in vivo
Rattus norvegicus [8] = assay: Dose normalized AUC in rat at 9.2 mg/kg, po; type: ADME, organism-based; parameters: dose 9.2 mg/kg, route oral; conditions: in vivo
[9] = Bioavailability in rat at 9.2 mg/kg, po; type: ADME, organism-based; conditions: in vivo
[10] = biological target: ALK tyrosine kinase receptor (Homo sapiens, UniProt Q9UM73); assay: Inhibition of ALK
[11] = biological target: Phosphatidylinositol 4,5-bisphosphate 3-kinase catalytic subunit alpha isoform (Homo sapiens, UniProt P42336); assay: Inhibition of PI3K
[12] = biological target: RAC-alpha serine/threonine-protein kinase (Homo sapiens, UniProt P31749); assay: Inhibition of AKT

Row | Structure (SMILES) | half-life [1] [days] | IC50 [2] [nM] | IC50 [3] [nM] | further results
1 | COc1cc(N2CCC(N3CCN(S(C)(=O)=O)CC3)CC2)ccc1Nc1nc(Nc2ccsc2C(N)=O)c2cc[nH]c2n1 | 17.9 | 5 | 92 | –
2 | COc1cc(N2CCN(C(C)C)CC2)ccc1Nc1nc(-n2[nH]c(=O)c3ccccc32)c2cc[nH]c2n1 | – | 6 | 546 | –
3 | COc1cc(N2CCN(C(C)C)CC2)ccc1Nc1nc(N2CCc3ccccc32)c2cc[nH]c2n1 | – | 10 | 1770 | –
4 | COc1cc(N2CCN(C(C)C)CC2)ccc1Nc1nc(Nc2ccccc2OC)c2cc[nH]c2n1 | – | 32 | 982 | –
5 | COc1cc2c(cc1Nc1nc(N3CCc4ccccc43)c3cc[nH]c3n1)N(C(=O)CN(C)C)CCC2 | > 41.7 | 0.5 | 15 | –
6 | COc1cc(N2CCN(C(C)C)CC2)ccc1Nc1nc2[nH]ccc2c2nc3cccc(F)c3c(=O)n12 | – | 7.9 | 30000 | clearance [4]: 47 mL/min/kg; AUC (Rattus norvegicus [5]): 18 ng·h/mL/mg/kg; bioavailability [6]: 81%
7 | CNC(=O)c1cscc1Nc1nc(Nc2cc3c(cc2OC)CCN3C(=O)CN(C)C)nc2[nH]ccc12 | 16.2 | 2 | 25 | –
8 | COc1cc2c(cc1Nc1nc(Nc3ccoc3C(N)=O)c3cc[nH]c3n1)N(C(=O)CN(C)C)CCC2 | > 41.7 | 0.3 | 9 | –
9 | COc1cc(N2CCN(C(C)C)CC2)ccc1Nc1nc(Nc2ccc3ncccc3c2)c2cc[nH]c2n1 | – | 13 | 773 | –
10 | COc1cc(N2CCN(C(C)C)CC2)ccc1Nc1nc(Nc2cccc3c2NCC3)c2cc[nH]c2n1 | – | 400 | 1690 | –
11 | COc1cc2c(cc1Nc1nc(Nc3cccnc3C(N)=O)c3cc[nH]c3n1)N(C(=O)CN(C)C)CCC2 | 1.12 | 0.5 | 18 | –
12 | COc1cc(N2CCN(C(C)C)CC2)ccc1Nc1nc(Nc2cc(F)ccc2C(N)=O)c2cc[nH]c2n1 | 0.167 | 0.7 | – | –
13 | COc1cc2c(cc1Nc1nc(Nc3cccc(F)c3C(N)=O)c3cc[nH]c3n1)N(C(=O)CN(C)C)CC2 | 0.0833 | 1 | 54 | –
14 | COc1cc(N2CCN(C(C)C)CC2)ccc1Nc1nc(Nc2ccccc2-n2cccn2)c2cc[nH]c2n1 | – | 25 | 654 | –
15 | COc1cc(N2CCN(C(C)C)CC2)ccc1Nc1nc(Nc2ccc(F)c(F)c2C(N)=O)c2cc[nH]c2n1 | 0.708 | 1.3 | – | –
16 | COc1cc(N2CCN(C(C)C)CC2)ccc1Nc1nc(Nc2cc(F)cc(F)c2C(N)=O)c2cc[nH]c2n1 | 1.62 | 0.8 | – | –
17 | COc1cc(N2CCN(C(C)C)CC2)ccc1Nc1nc(Nc2cccc(F)c2C(N)=O)c2cc[nH]c2n1 | 0.708 | 2 | 117 | clearance [7]: 51 mL/min/kg; AUC (Rattus norvegicus [8]): 156 ng·h/mL/mg/kg; bioavailability [9]: 65%
18 | COc1cc2c(cc1Nc1nc(Nc3cccnc3C(N)=O)c3cc[nH]c3n1)N(C(=O)CN(C)C)CC2 | 0.625 | 0.7 | 38 | –
19 | COc1cc(N2CCN(CC(C)C)CC2)ccc1Nc1nc(Nc2ccccc2C#N)c2cc[nH]c2n1 | – | 79 | 2740 | –
20 | COc1cc(N2CCN(C(C)C)CC2)ccc1Nc1nc(Nc2ccsc2C(N)=O)c2cc[nH]c2n1 | > 41.7 | 1.6 | 106 | –
21 | COc1cc2c(cc1Nc1nc(Nc3ccsc3C(N)=O)c3cc[nH]c3n1)N(C(=O)CN(C)C)CC2 | 10.4 | – | – | IC50 [10]: 0.4 nM
22 | COc1cc2c(cc1Nc1nc(Nc3ccoc3C(N)=O)c3cc[nH]c3n1)N(C(=O)CN(C)C)CC2 | > 41.7 | – | – | –
23 | CCCN1CCC(c2ccc(Nc3nc(Nc4ccsc4C(N)=O)c4cc[nH]c4n3)c(OC)c2)CC1 | 38.3 | 1.3 | 52 | –
24 | COc1cc2c(cc1Nc1nc(Nc3cccc4c3C(=O)NC4)c3cc[nH]c3n1)N(C(=O)CN(C)C)CC2 | > 41.7 | 0.8 | 16 | IC50 [11]: 0.8 nM; IC50 [12]: 2.5 nM
25 | COc1cc(N2CCN(C(C)C)CC2)ccc1Nc1nc(Nc2ccc(F)cc2C(N)=O)c2cc[nH]c2n1 [GSK-1220512A] | 0.0833 | 0.9 | – | –
26 | COc1cc(N2CCN(C(C)C)CC2)ccc1Nc1nc(Nc2cccc3ncccc23)c2cc[nH]c2n1 [GSK-1511931A] | – | 250 | 2530 | –
27 | COc1cc(N2CCN(C(C)C)CC2)ccc1Nc1nc(Nc2cccc(F)c2C(=O)O)c2cc[nH]c2n1 [GSK-1819799A] | – | – | – | clearance [4]: > 200 mL/min/kg; AUC (Rattus norvegicus [5]): 0 ng·h/mL/mg/kg; bioavailability [6]: 0%
28 | COc1cc2c(cc1Nc1nc(Nc3ccsc3C(N)=O)c3cc[nH]c3n1)N(C(=O)CN(C)C)CCC2 [GSK-2110236A] | 34.6 | < 0.2 | 6 | –
29 | COc1cc2c(cc1Nc1nc(Nc3ccsc3C(N)=O)c3cc[nH]c3n1)N(C(=O)CN(C)C)CCC2(C)C [GSK-2163632A] | 30 | 0.2 | < 2 | –
30 | COc1cc2c(cc1Nc1nc(N3CCc4ccccc43)c3cc[nH]c3n1)N(C(=O)CN(C)C)CC2 [GSK-2186269A] | > 41.7 | 0.8 | 160 | –
